In ChEMBL document CHEMBL1144861, “Synthesis and biological activities of novel 4"-alkylidene avermectin derivatives” (2003):
Values after ≈ are worked out from the molar mass of the structure shown.

Key:
[1] = tested on: Artemia salina; experiment: In vitro inhibitory activity required against Artemia salina; type: functional
[2] = tested on: Caenorhabditis elegans; experiment: In vitro inhibitory activity required against Caenorhabditis elegans.; type: functional

Molecule	MIC [1] [µg/mL]	MIC [2] [µg/mL]
CO[C@H]1C[C@H](O[Si](C)(C)C(C)(C)C)O[C@@H](C)/C1=C/CCl	0.01 (≈ 0.0312 µM)	0.01 (≈ 0.0312 µM)
CO[C@H]1C[C@H](O[Si](C)(C)C(C)(C)C)O[C@@H](C)/C1=C/C(=O)O	0.002 (≈ 0.00632 µM)	0.01 (≈ 0.0316 µM)
C=CCOC(=O)/C=C1/[C@H](C)O[C@@H](O[Si](C)(C)C(C)(C)C)C[C@@H]1OC	0.002 (≈ 0.00561 µM)	0.01 (≈ 0.028 µM)
CO[C@H]1C[C@H](O[Si](C)(C)C(C)(C)C)O[C@@H](C)/C1=C/C(=O)N1CCNCC1	0.002 (≈ 0.0052 µM)	0.01 (≈ 0.026 µM)
CO[C@H]1C[C@H](O[Si](C)(C)C(C)(C)C)O[C@@H](C)/C1=C\C#N	0.002 (≈ 0.00672 µM)	0.002 (≈ 0.00672 µM)
CO[C@H]1C[C@H](O[Si](C)(C)C(C)(C)C)O[C@@H](C)/C1=C/CN1CCCCC1	0.01 (≈ 0.0271 µM)	0.05 (≈ 0.135 µM)
CO[C@H]1C[C@H](O[Si](C)(C)C(C)(C)C)O[C@@H](C)/C1=C\COC(=O)c1ccncc1	0.01 (≈ 0.0245 µM)	0.05 (≈ 0.123 µM)
CO[C@H]1C[C@H](O[Si](C)(C)C(C)(C)C)O[C@@H](C)/C1=C/C(=O)N1CCOCC1	0.01 (≈ 0.0259 µM)	0.01 (≈ 0.0259 µM)
CO[C@H]1C[C@H](O[Si](C)(C)C(C)(C)C)O[C@@H](C)/C1=C/CO	0.01 (≈ 0.0331 µM)	0.01 (≈ 0.0331 µM)
CO[C@H]1C[C@H](O[Si](C)(C)C(C)(C)C)O[C@@H](C)/C1=C/C#N	0.0005 (≈ 0.00168 µM)	0.0005 (≈ 0.00168 µM)
CC[C@H](C)[C@H]1O[C@]2(C=C[C@@H]1C)C[C@@H]1C[C@@H](C/C=C(\C)[C@@H](O[C@H]3C[C@H](OC)[C@@H](O[C@H]4C[C@H](OC)[C@@H](O)[C@H](C)O4)[C@H](C)O3)[C@@H](C)/C=C/C=C3\CO[C@@H]4[C@H](O)C(C)=C[C@@H](C(=O)O1)[C@]34O)O2 [ABAMECTIN COMPONENT B1A]	0.0005 (≈ 0.000573 µM)	0.002 (≈ 0.00229 µM)
CO/N=C/C=C1\[C@H](C)O[C@@H](O[Si](C)(C)C(C)(C)C)C[C@@H]1OC	0.01 (≈ 0.0303 µM)	0.01 (≈ 0.0303 µM)
CO[C@H]1C[C@H](O[Si](C)(C)C(C)(C)C)O[C@@H](C)/C1=C\COC(=O)c1cccnc1	0.002 (≈ 0.00491 µM)	0.01 (≈ 0.0245 µM)
CCOC(=O)/C=C1/[C@H](C)O[C@@H](O[Si](C)(C)C(C)(C)C)C[C@@H]1OC	0.01 (≈ 0.029 µM)	0.01 (≈ 0.029 µM)
CO[C@H]1C[C@H](O[Si](C)(C)C(C)(C)C)O[C@@H](C)/C1=C\C(=O)O	0.002 (≈ 0.00632 µM)	0.01 (≈ 0.0316 µM)
CO[C@H]1C[C@H](O[Si](C)(C)C(C)(C)C)O[C@@H](C)/C1=C/C=O	0.01 (≈ 0.0333 µM)	0.01 (≈ 0.0333 µM)
CO[C@H]1C[C@H](O[Si](C)(C)C(C)(C)C)O[C@@H](C)/C1=C/C(=O)N1CCCCC1	0.002 (≈ 0.00521 µM)	0.01 (≈ 0.0261 µM)
CO[C@H]1C[C@H](O[Si](C)(C)C(C)(C)C)O[C@@H](C)/C1=C/CN1CCOCC1	0.01 (≈ 0.0269 µM)	0.01 (≈ 0.0269 µM)
CO[C@H]1C[C@H](O[Si](C)(C)C(C)(C)C)O[C@@H](C)/C1=C/CN1CCNCC1	0.002 (≈ 0.0054 µM)	0.01 (≈ 0.027 µM)
CO[C@H]1C[C@H](O[Si](C)(C)C(C)(C)C)O[C@@H](C)/C1=C\C=N\O	0.002 (≈ 0.00634 µM)	0.01 (≈ 0.0317 µM)
IVERMECTIN	0.002	0.002
